# Tests used:
# Test in all cases: relative viability (nuclei count vs DMSO), 5 days (fraction); higher = more cells survive
# BEN = tested on: BEN
# Procedure, shortened: (§1)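 Relative viability is defined as nuclei in treated wells over nuclei in vehicle wells. Duplicate plates were run and medians reported. Lung cancer cell lines in 1536-well plates were dosed by pin tool one day after seeding, with one drug or with a fixed anchor-drug dose plus five library-drug doses (not always all listed) in √10 steps, and nuclei were counted after 5 days.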
# CAL-12T = tested on: CAL-12T
# Procedure, shortened: as §1
# COR-L23 = tested on: COR-L23
# Procedure, shortened: as §1
# HCC-366 = tested on: HCC-366
# Procedure, shortened: as §1
# LOU-NH91 = tested on: LOU-NH91
# Procedure, shortened: as §1
# LU99A = tested on: LU99A
# Procedure, shortened: as §1
# NCI-H1355 = tested on: NCI-H1355
# Procedure, shortened: as §1
# NCI-H1437 = tested on: NCI-H1437
# Procedure, shortened: as §1
# NCI-H1563 = tested on: NCI-H1563
# Procedure, shortened: as §1
# NCI-H1650 = tested on: NCI-H1650
# Procedure, shortened: as §1
# NCI-H1651 = tested on: NCI-H1651
# Procedure, shortened: as §1
# NCI-H1734 = tested on: NCI-H1734
# Procedure, shortened: as §1
# NCI-H1793 = tested on: NCI-H1793
# Procedure, shortened: as §1
# NCI-H1975 = tested on: NCI-H1975
# Procedure, shortened: as §1
# NCI-H2023 = tested on: NCI-H2023
# Procedure, shortened: as §1
# NCI-H2085 = tested on: NCI-H2085
# Procedure, shortened: as §1
# NCI-H2342 = tested on: NCI-H2342
# Procedure, shortened: as §1
# NCI-H358 = tested on: NCI-H358
# Procedure, shortened: as §1
# NCI-H441 = tested on: NCI-H441
# Procedure, shortened: as §1
# NCI-H460 = tested on: NCI-H460
# Procedure, shortened: as §1
# NCI-H838 = tested on: NCI-H838
# Procedure, shortened: as §1
# SK-LU-1 = tested on: SK-LU-1
# Procedure, shortened: as §1
smiles,measurement,setting,value
O=c1cc(N2CCOCC2)oc2c(-c3cccc4c3sc3ccccc34)cccc12 + COc1cccc2cc(-c3nc([C@H]4CC[C@H](C(=O)O)CC4)n4ncnc(N)c34)[nH]c12 [OSI-027] (partner 0.5 µM),relative viability,BEN; first compound 0.01 µM,0.304
same,relative viability,BEN; first compound 0.03162 µM,0.309
same,relative viability,BEN; first compound 0.1 µM,0.302
same,relative viability,BEN; first compound 0.3162 µM,0.323
same,relative viability,BEN; first compound 1 µM,0.311
same,relative viability,CAL-12T; first compound 0.01 µM,0.69
same,relative viability,CAL-12T; first compound 0.03162 µM,0.71
same,relative viability,CAL-12T; first compound 0.1 µM,0.599
same,relative viability,CAL-12T; first compound 0.3162 µM,0.728
same,relative viability,CAL-12T; first compound 1 µM,0.707
same,relative viability,COR-L23; first compound 0.01 µM,0.748
same,relative viability,COR-L23; first compound 0.03162 µM,0.774
same,relative viability,COR-L23; first compound 0.1 µM,0.748
same,relative viability,COR-L23; first compound 0.3162 µM,0.796
same,relative viability,COR-L23; first compound 1 µM,0.834
same,relative viability,HCC-366; first compound 0.01 µM,1
same,relative viability,HCC-366; first compound 0.03162 µM,1.38
same,relative viability,HCC-366; first compound 0.1 µM,1.12
same,relative viability,HCC-366; first compound 0.3162 µM,0.928
same,relative viability,HCC-366; first compound 1 µM,0.955
same,relative viability,LOU-NH91; first compound 0.01 µM,0.68
same,relative viability,LOU-NH91; first compound 0.03162 µM,0.754
same,relative viability,LOU-NH91; first compound 0.1 µM,0.728
same,relative viability,LOU-NH91; first compound 0.3162 µM,0.779
same,relative viability,LOU-NH91; first compound 1 µM,0.702
same,relative viability,LU99A; first compound 0.01 µM,0.277
same,relative viability,LU99A; first compound 0.03162 µM,0.337
same,relative viability,LU99A; first compound 0.1 µM,0.323
same,relative viability,LU99A; first compound 0.3162 µM,0.311
same,relative viability,LU99A; first compound 1 µM,0.347
same,relative viability,NCI-H1355; first compound 0.01 µM,0.474
same,relative viability,NCI-H1355; first compound 0.03162 µM,0.469
same,relative viability,NCI-H1355; first compound 0.1 µM,0.265
same,relative viability,NCI-H1355; first compound 0.3162 µM,0.452
same,relative viability,NCI-H1355; first compound 1 µM,0.394
same,relative viability,NCI-H1437; first compound 0.01 µM,0.907
same,relative viability,NCI-H1437; first compound 0.03162 µM,0.848
same,relative viability,NCI-H1437; first compound 0.1 µM,0.913
same,relative viability,NCI-H1437; first compound 0.3162 µM,0.944
same,relative viability,NCI-H1437; first compound 1 µM,0.935
same,relative viability,NCI-H1563; first compound 0.01 µM,0.695
same,relative viability,NCI-H1563; first compound 0.03162 µM,0.741
same,relative viability,NCI-H1563; first compound 0.1 µM,0.773
same,relative viability,NCI-H1563; first compound 0.3162 µM,0.794
same,relative viability,NCI-H1563; first compound 1 µM,0.697
same,relative viability,NCI-H1650; first compound 0.01 µM,0.519
same,relative viability,NCI-H1650; first compound 0.03162 µM,0.631
same,relative viability,NCI-H1650; first compound 0.1 µM,0.535
same,relative viability,NCI-H1650; first compound 0.3162 µM,0.769
same,relative viability,NCI-H1650; first compound 1 µM,0.592
same,relative viability,NCI-H1651; first compound 0.01 µM,0.593
same,relative viability,NCI-H1651; first compound 0.03162 µM,0.704
same,relative viability,NCI-H1651; first compound 0.1 µM,0.668
same,relative viability,NCI-H1651; first compound 0.3162 µM,0.654
same,relative viability,NCI-H1651; first compound 1 µM,0.636
same,relative viability,NCI-H1734; first compound 0.01 µM,0.697
same,relative viability,NCI-H1734; first compound 0.03162 µM,0.599
same,relative viability,NCI-H1734; first compound 0.1 µM,0.579
same,relative viability,NCI-H1734; first compound 0.3162 µM,0.67
same,relative viability,NCI-H1734; first compound 1 µM,0.609
same,relative viability,NCI-H1793; first compound 0.01 µM,0.33
same,relative viability,NCI-H1793; first compound 0.1 µM,0.287
same,relative viability,NCI-H1793; first compound 0.3162 µM,0.251
same,relative viability,NCI-H1793; first compound 1 µM,0.247
same,relative viability,NCI-H1975; first compound 0.01 µM,0.718
same,relative viability,NCI-H1975; first compound 0.03162 µM,0.73
same,relative viability,NCI-H1975; first compound 0.1 µM,0.792
same,relative viability,NCI-H1975; first compound 0.3162 µM,0.874
same,relative viability,NCI-H1975; first compound 1 µM,0.752
same,relative viability,NCI-H2023; first compound 0.01 µM,0.456
same,relative viability,NCI-H2023; first compound 0.03162 µM,0.536
same,relative viability,NCI-H2023; first compound 0.1 µM,0.424
same,relative viability,NCI-H2023; first compound 0.3162 µM,0.394
same,relative viability,NCI-H2023; first compound 1 µM,0.411
same,relative viability,NCI-H2085; first compound 0.01 µM,0.946
same,relative viability,NCI-H2085; first compound 0.03162 µM,0.768
same,relative viability,NCI-H2085; first compound 0.1 µM,0.756
same,relative viability,NCI-H2085; first compound 0.3162 µM,0.827
same,relative viability,NCI-H2085; first compound 1 µM,0.8
same,relative viability,NCI-H2342; first compound 0.01 µM,0.641
same,relative viability,NCI-H2342; first compound 0.03162 µM,0.591
same,relative viability,NCI-H2342; first compound 0.1 µM,0.652
same,relative viability,NCI-H2342; first compound 0.3162 µM,0.715
same,relative viability,NCI-H2342; first compound 1 µM,0.533
same,relative viability,NCI-H358; first compound 0.01 µM,0.83
same,relative viability,NCI-H358; first compound 0.03162 µM,0.878
same,relative viability,NCI-H358; first compound 0.1 µM,0.881
same,relative viability,NCI-H358; first compound 0.3162 µM,0.844
same,relative viability,NCI-H358; first compound 1 µM,0.781
same,relative viability,NCI-H441; first compound 0.01 µM,0.679
same,relative viability,NCI-H441; first compound 0.03162 µM,0.617
same,relative viability,NCI-H441; first compound 0.1 µM,0.537
same,relative viability,NCI-H441; first compound 0.3162 µM,0.614
same,relative viability,NCI-H441; first compound 1 µM,0.648
same,relative viability,NCI-H460; first compound 0.01 µM,0.659
same,relative viability,NCI-H460; first compound 0.03162 µM,0.717
same,relative viability,NCI-H460; first compound 0.1 µM,0.683
same,relative viability,NCI-H460; first compound 0.3162 µM,0.68
same,relative viability,NCI-H460; first compound 1 µM,0.653
same,relative viability,NCI-H838; first compound 0.01 µM,0.401
same,relative viability,NCI-H838; first compound 0.03162 µM,0.397
same,relative viability,NCI-H838; first compound 0.1 µM,0.389
same,relative viability,NCI-H838; first compound 0.3162 µM,0.42
same,relative viability,NCI-H838; first compound 1 µM,0.374
same,relative viability,SK-LU-1; first compound 0.01 µM,0.35
same,relative viability,SK-LU-1; first compound 0.03162 µM,0.393
same,relative viability,SK-LU-1; first compound 0.1 µM,0.355
same,relative viability,SK-LU-1; first compound 0.3162 µM,0.398
same,relative viability,SK-LU-1; first compound 1 µM,0.415

# Reference: the supplement of paper PMC10307832
